According to US5059589A, “Glaucoma treatment” (Abbott Laboratories, priority 1990, dated 1991):

Test system: intraocular pressure in rabbits
Test: Effects of topically administered renin inhibiting compounds on intraocular pressure of rabbits
Assay type: in vivo, Male albino, New Zealand rabbits
Details: topical 0.1 ml, 0.1% (w/v)
Procedure: The antiglaucoma activity of the compounds was tested by measuring the effect on intraocular pressure in rabbits as described by Tinjum, A.M., Acta Ophthalmologica, 50, 677 (1972). Male albino, New Zealand rabbits were placed in restraining devices and the intraocular pressure was measured with an applamatic tonometer. Exactly 0.1 ml of an isotonic saline solution containing a test compound was instilled into the conjuctival sac and the intraocular pressure was measured at 5, 15, 30, 60, 90, 120 and 180 minutes afterwards.

C=C(C[C@H](O)[C@H](O)[C@H](CC1CCCCC1)NC(=O)C(Cc1cnc[nH]1)NC(=O)C(Cc1ccccc1)NC(=O)OC(C)(C)C)C(=O)[O-].[Na+] (stereo partly drawn) [Compound XII, Boc-Phe-His amide of (4S,5R,6S)-6-amino-7-cyclohexyl-4,5-dihydroxy-1-hepten-2-oic acid sodium salt]
Mean Intraocular Pressure in mmHg (0 minutes after administration): 19.3 mmHg
Mean Intraocular Pressure in mmHg (5 minutes after administration): 12.5 mmHg
Mean Intraocular Pressure in mmHg (15 minutes after administration): 10.3 mmHg
Mean Intraocular Pressure in mmHg (30 minutes after administration): 12.4 mmHg
Mean Intraocular Pressure in mmHg (60 minutes after administration): 12.3 mmHg
Mean Intraocular Pressure in mmHg (90 minutes after administration): 12.3 mmHg
Mean Intraocular Pressure in mmHg (120 minutes after administration): 14.6 mmHg
Mean Intraocular Pressure in mmHg (180 minutes after administration): 16.3 mmHg
